Values quoted from earlier work as cited in patent US20080293724A1, “Methods Using Hydralazine Compounds and Isosorbide Dinitrate or Isosorbide Mononitrate” (NITROMED, INC., priority 2006, published 2008).
Counter-ions that a name gives are not always drawn.

SMILES	solubility in alcohol (alcohol)	solubility in ether (ether)	solubility in water	solubility in organic solvents (organic solvents such as ethanol, ether and chloroform)
NNc1nncc2ccccc12 [Hydralazine hydrochloride, hydralazine hydrochloride]	slightly soluble	very slightly soluble	soluble	
O=[N+]([O-])O[C@H]1CO[C@H]2[C@@H]1OC[C@H]2O[N+](=O)[O-] [isosorbide dinitrate, 1,4,3,6-dianhydro-D-glucitol-2,5-dinitrate]			sparingly soluble	freely soluble
